Reference: PubChem BioAssay AID743469 (Vanderbilt Specialized Chemistry Center, 2014)
The source made the active and inactive calls. The rule behind the calls is not given here.

Biological target: Histone-lysine N-methyltransferase 2A (Homo sapiens) (UniProt Q03164)
Test: disruptors of menin binding to MLL peptide – biochemical, fluorescence polarization, SAR follow-up (AID 743469)
Conditions: menin + fluorescein MLL peptide

Histone-lysine N-methyltransferase 2A (Homo sapiens), sequence (Q03164 whole entry, looked up): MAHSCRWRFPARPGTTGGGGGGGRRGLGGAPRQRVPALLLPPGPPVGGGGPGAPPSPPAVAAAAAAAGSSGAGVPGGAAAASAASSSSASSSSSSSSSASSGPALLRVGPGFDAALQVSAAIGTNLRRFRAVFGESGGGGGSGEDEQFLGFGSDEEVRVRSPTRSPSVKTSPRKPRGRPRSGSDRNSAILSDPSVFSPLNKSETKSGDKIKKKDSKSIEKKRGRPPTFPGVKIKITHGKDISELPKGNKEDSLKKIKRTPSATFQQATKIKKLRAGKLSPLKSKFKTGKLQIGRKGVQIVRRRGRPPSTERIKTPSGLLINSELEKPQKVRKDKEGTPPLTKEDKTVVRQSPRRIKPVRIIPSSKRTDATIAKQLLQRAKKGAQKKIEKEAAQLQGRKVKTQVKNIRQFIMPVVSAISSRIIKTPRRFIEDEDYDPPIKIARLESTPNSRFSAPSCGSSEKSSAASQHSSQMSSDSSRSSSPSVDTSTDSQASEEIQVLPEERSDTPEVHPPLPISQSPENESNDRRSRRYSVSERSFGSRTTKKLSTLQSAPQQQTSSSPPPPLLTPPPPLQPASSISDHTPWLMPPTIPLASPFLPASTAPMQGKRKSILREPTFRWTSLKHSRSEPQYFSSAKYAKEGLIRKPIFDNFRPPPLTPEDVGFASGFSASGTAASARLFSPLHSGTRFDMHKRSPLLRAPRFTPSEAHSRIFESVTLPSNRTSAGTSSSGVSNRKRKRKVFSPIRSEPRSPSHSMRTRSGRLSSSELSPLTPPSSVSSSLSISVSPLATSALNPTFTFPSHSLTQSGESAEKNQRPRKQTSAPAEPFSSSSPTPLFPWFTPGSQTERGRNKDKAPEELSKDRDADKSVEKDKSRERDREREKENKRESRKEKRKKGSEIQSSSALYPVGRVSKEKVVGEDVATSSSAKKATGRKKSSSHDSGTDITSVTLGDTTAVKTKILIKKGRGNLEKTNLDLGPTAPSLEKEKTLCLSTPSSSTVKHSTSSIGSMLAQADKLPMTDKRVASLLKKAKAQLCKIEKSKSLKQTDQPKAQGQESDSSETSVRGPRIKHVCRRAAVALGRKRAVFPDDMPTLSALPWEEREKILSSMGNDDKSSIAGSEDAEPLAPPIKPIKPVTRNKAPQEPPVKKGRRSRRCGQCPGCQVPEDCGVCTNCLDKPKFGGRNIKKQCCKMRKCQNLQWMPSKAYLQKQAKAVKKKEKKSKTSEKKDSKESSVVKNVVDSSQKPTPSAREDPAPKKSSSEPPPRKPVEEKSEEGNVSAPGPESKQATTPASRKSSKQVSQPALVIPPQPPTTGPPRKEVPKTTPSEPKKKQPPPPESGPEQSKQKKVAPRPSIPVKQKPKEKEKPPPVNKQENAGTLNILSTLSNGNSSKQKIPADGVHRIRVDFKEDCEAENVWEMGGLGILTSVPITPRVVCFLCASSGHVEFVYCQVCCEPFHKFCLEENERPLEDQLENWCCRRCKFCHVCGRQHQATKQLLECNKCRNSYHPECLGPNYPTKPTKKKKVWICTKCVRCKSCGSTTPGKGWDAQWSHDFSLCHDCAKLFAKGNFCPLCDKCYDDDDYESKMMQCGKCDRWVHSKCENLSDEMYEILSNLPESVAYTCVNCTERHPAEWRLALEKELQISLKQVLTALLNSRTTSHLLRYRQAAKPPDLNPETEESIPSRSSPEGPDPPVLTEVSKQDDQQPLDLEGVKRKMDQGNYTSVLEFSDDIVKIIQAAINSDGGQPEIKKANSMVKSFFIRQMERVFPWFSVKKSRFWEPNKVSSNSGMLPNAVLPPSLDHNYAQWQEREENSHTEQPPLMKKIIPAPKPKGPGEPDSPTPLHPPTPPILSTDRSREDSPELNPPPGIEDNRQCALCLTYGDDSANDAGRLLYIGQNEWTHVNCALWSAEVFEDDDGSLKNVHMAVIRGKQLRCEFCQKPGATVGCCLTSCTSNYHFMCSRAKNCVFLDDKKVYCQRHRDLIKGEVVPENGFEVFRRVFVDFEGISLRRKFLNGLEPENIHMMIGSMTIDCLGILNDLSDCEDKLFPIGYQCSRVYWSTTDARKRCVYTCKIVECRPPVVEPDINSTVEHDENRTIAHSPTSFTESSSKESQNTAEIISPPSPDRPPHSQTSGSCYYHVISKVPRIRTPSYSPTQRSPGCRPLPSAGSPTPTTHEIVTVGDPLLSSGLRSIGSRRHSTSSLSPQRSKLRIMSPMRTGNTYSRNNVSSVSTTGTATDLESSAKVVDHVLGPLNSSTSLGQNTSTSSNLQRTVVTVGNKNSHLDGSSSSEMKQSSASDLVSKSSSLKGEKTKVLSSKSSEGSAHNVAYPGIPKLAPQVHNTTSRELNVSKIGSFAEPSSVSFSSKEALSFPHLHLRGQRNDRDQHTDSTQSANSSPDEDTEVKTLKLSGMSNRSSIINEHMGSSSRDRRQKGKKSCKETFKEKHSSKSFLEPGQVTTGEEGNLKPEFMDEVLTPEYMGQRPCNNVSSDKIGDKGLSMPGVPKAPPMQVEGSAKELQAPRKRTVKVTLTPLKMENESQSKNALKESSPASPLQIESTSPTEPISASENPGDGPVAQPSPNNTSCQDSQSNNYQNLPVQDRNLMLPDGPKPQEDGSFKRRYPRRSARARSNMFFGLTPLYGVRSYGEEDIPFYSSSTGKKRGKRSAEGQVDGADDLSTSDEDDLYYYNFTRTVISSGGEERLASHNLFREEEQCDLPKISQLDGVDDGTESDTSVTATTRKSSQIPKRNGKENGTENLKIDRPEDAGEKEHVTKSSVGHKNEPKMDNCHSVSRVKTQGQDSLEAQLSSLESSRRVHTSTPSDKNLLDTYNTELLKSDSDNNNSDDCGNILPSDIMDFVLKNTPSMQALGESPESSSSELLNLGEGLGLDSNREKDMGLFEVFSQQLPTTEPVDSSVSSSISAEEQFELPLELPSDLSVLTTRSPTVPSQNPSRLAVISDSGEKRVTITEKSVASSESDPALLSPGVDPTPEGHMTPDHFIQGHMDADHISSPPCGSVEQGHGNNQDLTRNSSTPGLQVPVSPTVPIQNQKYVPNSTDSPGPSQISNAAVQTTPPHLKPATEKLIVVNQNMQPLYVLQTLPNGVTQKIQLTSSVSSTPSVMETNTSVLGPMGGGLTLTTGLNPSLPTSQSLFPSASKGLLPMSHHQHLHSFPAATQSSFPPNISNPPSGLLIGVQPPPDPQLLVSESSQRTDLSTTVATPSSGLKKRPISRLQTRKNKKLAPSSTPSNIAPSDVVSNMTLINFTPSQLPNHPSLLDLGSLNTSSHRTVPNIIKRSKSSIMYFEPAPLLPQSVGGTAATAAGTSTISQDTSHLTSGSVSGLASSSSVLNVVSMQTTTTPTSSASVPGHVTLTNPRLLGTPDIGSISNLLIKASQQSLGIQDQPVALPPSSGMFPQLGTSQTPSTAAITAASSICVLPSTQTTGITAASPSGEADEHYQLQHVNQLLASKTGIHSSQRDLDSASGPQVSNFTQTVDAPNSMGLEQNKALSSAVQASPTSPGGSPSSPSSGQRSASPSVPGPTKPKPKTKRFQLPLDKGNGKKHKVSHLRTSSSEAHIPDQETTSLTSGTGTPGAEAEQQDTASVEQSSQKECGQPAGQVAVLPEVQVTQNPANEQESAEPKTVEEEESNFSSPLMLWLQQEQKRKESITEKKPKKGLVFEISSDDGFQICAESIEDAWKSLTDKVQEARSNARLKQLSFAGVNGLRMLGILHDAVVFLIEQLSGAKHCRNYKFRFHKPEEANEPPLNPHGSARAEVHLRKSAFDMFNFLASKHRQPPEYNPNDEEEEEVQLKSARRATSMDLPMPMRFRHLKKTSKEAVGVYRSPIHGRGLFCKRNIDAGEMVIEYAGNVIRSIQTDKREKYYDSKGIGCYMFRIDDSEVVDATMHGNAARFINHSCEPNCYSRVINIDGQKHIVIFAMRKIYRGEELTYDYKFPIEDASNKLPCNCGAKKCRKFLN

IC50 [µM]	outcome	SMILES
0.0197		N#Cc1ccc(OCCCN2CCC(C(O)(c3cccc(F)c3)c3nccs3)CC2)cc1 (stereo not given)
0.0437		NS(=O)(=O)c1ccc(OCCCN2CCC(C(O)(c3cccc(F)c3)c3nccs3)CC2)cc1 (stereo not given)

Second part, the molecule before the results:

SMILES	IC50 [µM]	outcome
N#Cc1ccc(OCCCN2CCC(C(O)(c3cc(F)cc(F)c3)c3ccccn3)CC2)cc1 (stereo not given)	0.0437	
N#Cc1ccc(OCCCN2CCC(C(O)(c3ccccc3)C3CCCC3)CC2)nc1 (stereo not given)		inactive
N#Cc1ccc(OCCCN2CCC(C(O)(c3cccnc3)C3CCCC3)CC2)cc1 (stereo not given)	0.709	
